{
  "source": "patent US20240182513A1",
  "about": "“SEPARATION OF METAL IONS FROM A SAMPLE USING GLYCOLIPIDS” (ARIZONA BOARD OF REGENTS ON BEHALF OF THE UNIVERSITY OF …, priority 2021, published 2024)",
  "key": {"[1]": {"assay": "Example 2.1 rhamnolipid precipitation, filtration, centrifugation: lead", "details": "for Treatment 2: Rhamnolipid and Filtration Cf / Treatment 3: Rhamnolipid and Centrifugation Cc / Treatment 1: Rhamnolipid Only Cr: lead concentration after treatment; for Treatment 1: Rhamnolipid Only (Rr) efficiency of removal / Treatment 2: Rhamnolipid and Filtration (Rf) efficiency of removal / Treatment 3: Rhamnolipid and Centrifugation (Rc) efficiency of removal: lead", "description": "(§1) Structural variants of synthetic glycolipids were used to show the effect of the number and length of the hydrophobic tail(s) on rhamnolipid as a chemical precipitant. […] Solutions (10 mM) were made using nanopure water (≥18 MΩ-cm) then adjusted to a pH of 6.9±0.05 with HNO3 and NaOH. These solutions were made in advance and stored in the cold room for up to one month. They were brought to room temperature before each experiment.\n(§2) Three metals were tested for binding with rhamnolipid. Lead as […] (Fisher Scientific, Waltham, MA, 99% purity), was chosen to represent a metal with high rhamnolipid-metal conditional stability constant; lanthanum as La(NO3)3 6(H2O) (Sigma-Aldrich, St. Louis, MO, 99.99% purity) was chosen as a representative REE; and magnesium as Mg(NO3)2 6(H2O) (Sigma-Aldrich, St. Louis, MO, 99% purity) was chosen to represent a metal with a low rhamnolipid-metal conditional stability constant (Hogan et al., 2017). Metal solutions (5 mM) were made using nanopure water (≥18 MΩ-cm) in 20 ml glass scintillation vials. All solutions were used within 15 min to ensure minimal adsorption to the glass vial.\n(§3) Three glycolipid-based treatments were evaluated to remove metal from solution: (1) the addition of glycolipid with no further treatment (gravitational precipitation), (2) the addition of a glycolipid followed by filtration or (3) the addition of a glycolipid followed by centrifugation. Each metal (Pb, La, and Mg) was evaluated separately with each of the glycolipid structures. For each experiment, a metal solution was mixed with a glycolipid solution in a 1.7 ml reaction tube at varying molar ratios of glycolipid to metal: 0:1 (glycolipid-free control), 2:1, 5:1, and 10:1. The reactions were mixed in the order of nanopure water (≥18 MΩ-cm), glycolipid solution (10 mM), then metal solution (5 mM). The metal and glycolipid solutions were continuously stirred as they were aliquoted into the reaction tubes. The experiment was performed in triplicate.\n(§4) The reaction tubes were mixed overnight (16 to 24 h) and then three samples were collected from each tube to measure the effect of each of the three treatments: a glycolipid only treatment sample, a filtration treatment sample, and a centrifugation treatment sample. Briefly, for the glycolipid only treatment samples all tubes were vortexed for approximately 5 sec immediately before removing 0.1 ml into a dilution tube of 2% trace metal grade nitric acid (12 to 14 ml) to minimize the settling of particles. For the filtration samples each reaction tube was vortexed for 5 sec and then a 0.6 ml aliquot was collected with a 1 ml syringe. A GHP acrodisc disk filter (hydrophilic polypropylene membrane, 0.45 μm pore size, 25 mm disc diameter) from Pall Life Sciences (Port Washington, New York) was then placed onto the end of the syringe and the solution was pushed through the filter. The void space in the disk filter holds approximately 0.5 ml, therefore around 0.1 ml of filtrate was collected into a dilution tube. For the centrifugation sample, the remaining solution was centrifuged at 10,000 RCF for 15 min. Approximately 0.1 ml of the supernatant was aliquoted into a dilution tube. Following collection, all samples were taken for metal analysis using ICP-MS."}, "[2]": {"assay": "Example 2.1 rhamnolipid precipitation, filtration, centrifugation: magnesium", "details": "for Treatment 2: Rhamnolipid and Filtration Cf / Treatment 3: Rhamnolipid and Centrifugation Cc / Treatment 1: Rhamnolipid Only Cr: magnesium concentration after treatment; for Treatment 1: Rhamnolipid Only (Rr) efficiency of removal / Treatment 2: Rhamnolipid and Filtration (Rf) efficiency of removal / Treatment 3: Rhamnolipid and Centrifugation (Rc) efficiency of removal: magnesium", "description": "as §1, §2, §3, §4"}, "[3]": {"assay": "Example 2.1 rhamnolipid precipitation, filtration, centrifugation: lanthanum", "details": "for Treatment 2: Rhamnolipid and Filtration Cf / Treatment 3: Rhamnolipid and Centrifugation Cc / Treatment 1: Rhamnolipid Only Cr: lanthanum concentration after treatment; for Treatment 1: Rhamnolipid Only (Rr) efficiency of removal / Treatment 2: Rhamnolipid and Filtration (Rf) efficiency of removal / Treatment 3: Rhamnolipid and Centrifugation (Rc) efficiency of removal: lanthanum", "description": "as §1, §2, §3, §4"}},
  "data": [
    {"molecule": "CCCCCCCCCCCCCCCC(CC(=O)O)OC1O[C@@H](C)[C@H](O)[C@@H](O)[C@H]1O", "note": "(stereo partly shown) [Rha C18]", "values": [
      {"measurement": "Treatment 2: Rhamnolipid and Filtration Cf", "setting": "[1]; molar ratio 2 to 1", "result": "0.027 ± 0.001", "unit": "mmol/L"},
      {"measurement": "Treatment 3: Rhamnolipid and Centrifugation Cc", "setting": "[1]; molar ratio 2 to 1", "result": "0.132 ± 0.001", "unit": "mmol/L"},
      {"measurement": "Treatment 1: Rhamnolipid Only Cr", "setting": "[1]; molar ratio 5 to 1", "result": "0.044 ± 0.008", "unit": "mmol/L"},
      {"measurement": "Treatment 2: Rhamnolipid and Filtration Cf", "setting": "[1]; molar ratio 5 to 1", "result": "0.000 ± 0.002", "unit": "mmol/L"},
      {"measurement": "Treatment 3: Rhamnolipid and Centrifugation Cc", "setting": "[1]; molar ratio 5 to 1", "result": "0.005 ± 0.002", "unit": "mmol/L"},
      {"measurement": "Treatment 1: Rhamnolipid Only Cr", "setting": "[1]; molar ratio 10 to 1", "result": "0.255 ± 0.015", "unit": "mmol/L"},
      {"measurement": "Treatment 2: Rhamnolipid and Filtration Cf", "setting": "[1]; molar ratio 10 to 1", "result": "0.000 ± 0.001", "unit": "mmol/L"},
      {"measurement": "Treatment 3: Rhamnolipid and Centrifugation Cc", "setting": "[1]; molar ratio 10 to 1", "result": "0.014 ± 0.001", "unit": "mmol/L"},
      {"measurement": "Treatment 1: Rhamnolipid Only Cr", "setting": "[1]; molar ratio rhamnolipid:lead 2 to 1", "result": "0.123 ± 0.002", "unit": "mmol/L"},
      {"measurement": "Treatment 1: Rhamnolipid Only (Rr) efficiency of removal", "setting": "[1]; molar ratio 2 to 1", "result": "(54.8%)"},
      {"measurement": "Treatment 2: Rhamnolipid and Filtration (Rf) efficiency of removal", "setting": "[1]; molar ratio 2 to 1", "result": "(90.1%)"},
      {"measurement": "Treatment 3: Rhamnolipid and Centrifugation (Rc) efficiency of removal", "setting": "[1]; molar ratio 2 to 1", "result": "(51.6%)"},
      {"measurement": "Treatment 1: Rhamnolipid Only (Rr) efficiency of removal", "setting": "[1]; molar ratio 5 to 1", "result": "(83.9%)"},
      {"measurement": "Treatment 2: Rhamnolipid and Filtration (Rf) efficiency of removal", "setting": "[1]; molar ratio 5 to 1", "result": "(99.9%)"},
      {"measurement": "Treatment 3: Rhamnolipid and Centrifugation (Rc) efficiency of removal", "setting": "[1]; molar ratio 5 to 1", "result": "(98.1%)"},
      {"measurement": "Treatment 1: Rhamnolipid Only (Rr) efficiency of removal", "setting": "[1]; molar ratio 10 to 1", "result": "(6.2%)"},
      {"measurement": "Treatment 2: Rhamnolipid and Filtration (Rf) efficiency of removal", "setting": "[1]; molar ratio 10 to 1", "result": "(99.9%)"},
      {"measurement": "Treatment 3: Rhamnolipid and Centrifugation (Rc) efficiency of removal", "setting": "[1]; molar ratio 10 to 1", "result": "(94.7%)"},
      {"measurement": "Treatment 2: Rhamnolipid and Filtration Cf", "setting": "[2]; molar ratio 2 to 1", "result": "0.169 ± 0.015", "unit": "mmol/L"},
      {"measurement": "Treatment 3: Rhamnolipid and Centrifugation Cc", "setting": "[2]; molar ratio 2 to 1", "result": "0.216 ± 0.002", "unit": "mmol/L"},
      {"measurement": "Treatment 1: Rhamnolipid Only Cr", "setting": "[2]; molar ratio 5 to 1", "result": "0.215 ± 0.002", "unit": "mmol/L"},
      {"measurement": "Treatment 2: Rhamnolipid and Filtration Cf", "setting": "[2]; molar ratio 5 to 1", "result": "0.056 ± 0.012", "unit": "mmol/L"},
      {"measurement": "Treatment 3: Rhamnolipid and Centrifugation Cc", "setting": "[2]; molar ratio 5 to 1", "result": "0.141 ± 0.001", "unit": "mmol/L"},
      {"measurement": "Treatment 1: Rhamnolipid Only Cr", "setting": "[2]; molar ratio 10 to 1", "result": "0.304 ± 0.001", "unit": "mmol/L"},
      {"measurement": "Treatment 2: Rhamnolipid and Filtration Cf", "setting": "[2]; molar ratio 10 to 1", "result": "0.017 ± 0.002", "unit": "mmol/L"},
      {"measurement": "Treatment 3: Rhamnolipid and Centrifugation Cc", "setting": "[2]; molar ratio 10 to 1", "result": "0.107 ± 0.004", "unit": "mmol/L"},
      {"measurement": "Treatment 1: Rhamnolipid Only Cr", "setting": "[2]; molar ratio rhamnolipid:magnesium 2 to 1", "result": "0.265 ± 0.002", "unit": "mmol/L"},
      {"measurement": "Treatment 1: Rhamnolipid Only (Rr) efficiency of removal", "setting": "[2]; molar ratio 2 to 1", "result": "(12.1%)"},
      {"measurement": "Treatment 2: Rhamnolipid and Filtration (Rf) efficiency of removal", "setting": "[2]; molar ratio 2 to 1", "result": "(37.0%)"},
      {"measurement": "Treatment 3: Rhamnolipid and Centrifugation (Rc) efficiency of removal", "setting": "[2]; molar ratio 2 to 1", "result": "(20.5%)"},
      {"measurement": "Treatment 1: Rhamnolipid Only (Rr) efficiency of removal", "setting": "[2]; molar ratio 5 to 1", "result": "(19.5%)"},
      {"measurement": "Treatment 2: Rhamnolipid and Filtration (Rf) efficiency of removal", "setting": "[2]; molar ratio 5 to 1", "result": "(79.0%)"},
      {"measurement": "Treatment 3: Rhamnolipid and Centrifugation (Rc) efficiency of removal", "setting": "[2]; molar ratio 5 to 1", "result": "(47.4%)"},
      {"measurement": "Treatment 2: Rhamnolipid and Filtration (Rf) efficiency of removal", "setting": "[2]; molar ratio 10 to 1", "result": "(93.7%)"},
      {"measurement": "Treatment 3: Rhamnolipid and Centrifugation (Rc) efficiency of removal", "setting": "[2]; molar ratio 10 to 1", "result": "(60.1%)"},
      {"measurement": "Treatment 2: Rhamnolipid and Filtration Cf", "setting": "[3]; molar ratio 2 to 1", "result": "0.116 ± 0.029", "unit": "mmol/L"},
      {"measurement": "Treatment 3: Rhamnolipid and Centrifugation Cc", "setting": "[3]; molar ratio 2 to 1", "result": "0.228 ± 0.013", "unit": "mmol/L"},
      {"measurement": "Treatment 1: Rhamnolipid Only Cr", "setting": "[3]; molar ratio 5 to 1", "result": "0.121 ± 0.009", "unit": "mmol/L"},
      {"measurement": "Treatment 2: Rhamnolipid and Filtration Cf", "setting": "[3]; molar ratio 5 to 1", "result": "0.001 ± 0.002", "unit": "mmol/L"},
      {"measurement": "Treatment 3: Rhamnolipid and Centrifugation Cc", "setting": "[3]; molar ratio 5 to 1", "result": "0.088 ± 0.003", "unit": "mmol/L"},
      {"measurement": "Treatment 1: Rhamnolipid Only Cr", "setting": "[3]; molar ratio 10 to 1", "result": "0.331 ± 0.024", "unit": "mmol/L"},
      {"measurement": "Treatment 2: Rhamnolipid and Filtration Cf", "setting": "[3]; molar ratio 10 to 1", "result": "0.004 ± 0.001", "unit": "mmol/L"},
      {"measurement": "Treatment 3: Rhamnolipid and Centrifugation Cc", "setting": "[3]; molar ratio 10 to 1", "result": "0.051 ± 0.010", "unit": "mmol/L"},
      {"measurement": "Treatment 1: Rhamnolipid Only Cr", "setting": "[3]; molar ratio rhamnolipid:lanthanum 2 to 1", "result": "0.249 ± 0.009", "unit": "mmol/L"},
      {"measurement": "Treatment 1: Rhamnolipid Only (Rr) efficiency of removal", "setting": "[3]; molar ratio 2 to 1", "result": "(16.5%)"},
      {"measurement": "Treatment 2: Rhamnolipid and Filtration (Rf) efficiency of removal", "setting": "[3]; molar ratio 2 to 1", "result": "(61.1%)"},
      {"measurement": "Treatment 3: Rhamnolipid and Centrifugation (Rc) efficiency of removal", "setting": "[3]; molar ratio 2 to 1", "result": "(23.4%)"},
      {"measurement": "Treatment 1: Rhamnolipid Only (Rr) efficiency of removal", "setting": "[3]; molar ratio 5 to 1", "result": "(59.4%)"},
      {"measurement": "Treatment 2: Rhamnolipid and Filtration (Rf) efficiency of removal", "setting": "[3]; molar ratio 5 to 1", "result": "(99.5%)"},
      {"measurement": "Treatment 3: Rhamnolipid and Centrifugation (Rc) efficiency of removal", "setting": "[3]; molar ratio 5 to 1", "result": "(70.6%)"},
      {"measurement": "Treatment 2: Rhamnolipid and Filtration (Rf) efficiency of removal", "setting": "[3]; molar ratio 10 to 1", "result": "(98.8%)"},
      {"measurement": "Treatment 3: Rhamnolipid and Centrifugation (Rc) efficiency of removal", "setting": "[3]; molar ratio 10 to 1", "result": "(82.8%)"}
    ]}
  ]
}
